In PubChem BioAssay (NCI):
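Protocol summary: plate cells (96-well), add compound at 5 concentrations, incubate 48 h, interpolate endpoints linearly. TGI: concentration producing complete growth inhibition.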

Legend:
Experiment in all cases: growth of human tumour cells (NCI), 48 h
OVCAR-4 ovarian = test system: OVCAR-4 ovarian
COLO 205 colon = test system: COLO 205 colon
A549 NSCLC = test system: A549 NSCLC
NCI-H522 lung = test system: NCI-H522 lung
KM12 colon = test system: KM12 colon
SNB-19 CNS = test system: SNB-19 CNS
HCT-116 colon = test system: HCT-116 colon
CCRF-CEM leukemia = test system: CCRF-CEM leukemia
MOLT-4 leukemia = test system: MOLT-4 leukemia
SK-MEL-5 melanoma = test system: SK-MEL-5 melanoma
EKVX NSCLC = test system: EKVX NSCLC
SNB-75 CNS = test system: SNB-75 CNS
M19-MEL melanoma = test system: M19-MEL melanoma
K-562 leukemia = test system: K-562 leukemia
HOP-18 NSCLC = test system: HOP-18 NSCLC
SK-MEL-2 melanoma = test system: SK-MEL-2 melanoma
SW-620 colon = test system: SW-620 colon
SF-268 CNS = test system: SF-268 CNS
OVCAR-5 ovarian = test system: OVCAR-5 ovarian
DMS 114 small cell lung = test system: DMS 114 small cell lung
SNB-78 CNS = test system: SNB-78 CNS
SF-295 CNS = test system: SF-295 CNS
HCT-15 colon = test system: HCT-15 colon
XF 498 CNS = test system: XF 498 CNS
SK-OV-3 ovarian = test system: SK-OV-3 ovarian
M14 melanoma = test system: M14 melanoma
RXF 393 renal = test system: RXF 393 renal
786-0 renal = test system: 786-0 renal
MALME-3M melanoma = test system: MALME-3M melanoma
HT29 colon = test system: HT29 colon
HOP-62 NSCLC = test system: HOP-62 NSCLC
KM20L2 colon = test system: KM20L2 colon
SF-539 CNS = test system: SF-539 CNS
UACC-62 melanoma = test system: UACC-62 melanoma
OVCAR-8 ovarian = test system: OVCAR-8 ovarian
IGROV1 ovarian = test system: IGROV1 ovarian
OVCAR-3 ovarian = test system: OVCAR-3 ovarian
U251 CNS = test system: U251 CNS
RPMI-8226 leukemia = test system: RPMI-8226 leukemia
NCI-H23 lung = test system: NCI-H23 lung
SN12C renal = test system: SN12C renal
NCI-H226 lung = test system: NCI-H226 lung
RXF-631 renal = test system: RXF-631 renal
HOP-92 NSCLC = test system: HOP-92 NSCLC
UO-31 renal = test system: UO-31 renal
LOX IMVI melanoma = test system: LOX IMVI melanoma
SK-MEL-28 melanoma = test system: SK-MEL-28 melanoma
TK-10 renal = test system: TK-10 renal
UACC-257 melanoma = test system: UACC-257 melanoma
LXFL 529 NSCLC = test system: LXFL 529 NSCLC
DMS 273 small cell lung = test system: DMS 273 small cell lung
A498 renal = test system: A498 renal
CAKI-1 renal = test system: CAKI-1 renal
HCC-2998 colon = test system: HCC-2998 colon
NCI-H460 lung = test system: NCI-H460 lung
ACHN renal = test system: ACHN renal
DLD-1 colon = test system: DLD-1 colon

Question: Which TGI (OVCAR-4 ovarian) does the source give for `COc1ccc(C2CCc3cc4c(cc3/C2=N/OC(C)=O)OCO4)cc1OC` (stereo unspecified) here?
Answer: > 100 µM

Question: And the TGI (COLO 205 colon)?
Answer: 63.5 µM

Question: What about the TGI (A549 NSCLC) of the same molecule?
Answer: 80.1 µM

Question: What about the TGI (NCI-H522 lung) of the same molecule?
Answer: 53.4 µM

Question: What about the TGI (KM12 colon) of the same molecule?
Answer: 54.8 µM

Question: And the TGI (SNB-19 CNS)?
Answer: > 100 µM

Question: And the TGI (HCT-116 colon)?
Answer: 28.1 µM

Question: And the TGI (CCRF-CEM leukemia)?
Answer: > 100 µM

Question: And the TGI (MOLT-4 leukemia)?
Answer: 52 µM

Question: And the TGI (SK-MEL-5 melanoma)?
Answer: 23 µM

Question: What about the TGI (EKVX NSCLC) of the same molecule?
Answer: > 100 µM

Question: And the TGI (SNB-75 CNS)?
Answer: 75 µM

Question: What about the TGI (M19-MEL melanoma) of the same molecule?
Answer: 71 µM

Question: And the TGI (K-562 leukemia)?
Answer: > 100 µM

Question: And the TGI (HOP-18 NSCLC)?
Answer: > 100 µM

Question: And the TGI (SK-MEL-2 melanoma)?
Answer: 64.7 µM

Question: And the TGI (SW-620 colon)?
Answer: > 100 µM

Question: And the TGI (SF-268 CNS)?
Answer: > 100 µM

Question: And the TGI (OVCAR-5 ovarian)?
Answer: > 100 µM

Question: And the TGI (DMS 114 small cell lung)?
Answer: 51.9 µM

Question: What about the TGI (SNB-78 CNS) of the same molecule?
Answer: > 100 µM

Question: And the TGI (SF-295 CNS)?
Answer: 82.2 µM

Question: And the TGI (HCT-15 colon)?
Answer: > 100 µM

Question: And the TGI (XF 498 CNS)?
Answer: 57.5 µM

Question: What about the TGI (SK-OV-3 ovarian) of the same molecule?
Answer: 95.3 µM

Question: And the TGI (M14 melanoma)?
Answer: 42.2 µM

Question: What about the TGI (RXF 393 renal) of the same molecule?
Answer: 54 µM

Question: And the TGI (786-0 renal)?
Answer: > 100 µM

Question: And the TGI (MALME-3M melanoma)?
Answer: 55.2 µM

Question: What about the TGI (HT29 colon) of the same molecule?
Answer: > 100 µM

Question: And the TGI (HOP-62 NSCLC)?
Answer: > 100 µM

Question: What about the TGI (KM20L2 colon) of the same molecule?
Answer: 72.3 µM

Question: What about the TGI (SF-539 CNS) of the same molecule?
Answer: 35.7 µM

Question: What about the TGI (UACC-62 melanoma) of the same molecule?
Answer: 57.7 µM

Question: And the TGI (OVCAR-8 ovarian)?
Answer: > 100 µM

Question: What about the TGI (IGROV1 ovarian) of the same molecule?
Answer: > 100 µM

Question: And the TGI (OVCAR-3 ovarian)?
Answer: 55.9 µM

Question: What about the TGI (U251 CNS) of the same molecule?
Answer: > 100 µM

Question: And the TGI (RPMI-8226 leukemia)?
Answer: 47.8 µM

Question: What about the TGI (NCI-H23 lung) of the same molecule?
Answer: 72.6 µM

Question: And the TGI (SN12C renal)?
Answer: > 100 µM

Question: What about the TGI (NCI-H226 lung) of the same molecule?
Answer: 43.3 µM

Question: What about the TGI (RXF-631 renal) of the same molecule?
Answer: > 100 µM

Question: And the TGI (HOP-92 NSCLC)?
Answer: 69.6 µM

Question: And the TGI (UO-31 renal)?
Answer: 51.1 µM

Question: What about the TGI (LOX IMVI melanoma) of the same molecule?
Answer: 33.1 µM

Question: What about the TGI (SK-MEL-28 melanoma) of the same molecule?
Answer: 57.4 µM

Question: What about the TGI (TK-10 renal) of the same molecule?
Answer: > 100 µM

Question: And the TGI (UACC-257 melanoma)?
Answer: 51.6 µM

Question: And the TGI (LXFL 529 NSCLC)?
Answer: > 100 µM

Question: What about the TGI (DMS 273 small cell lung) of the same molecule?
Answer: 78.1 µM

Question: How did the TGI (A498 renal) turn out when `Cc1cc(Cl)cc2c1NC(=O)C2=O` (tested in a mixture with another compound) was run?
Answer: > 100 µM

Question: And the TGI (OVCAR-4 ovarian)?
Answer: > 100 µM

Question: What about the TGI (COLO 205 colon) of the same molecule?
Answer: > 100 µM

Question: And the TGI (A549 NSCLC)?
Answer: > 100 µM

Question: What about the TGI (NCI-H522 lung) of the same molecule?
Answer: 86 µM

Question: What about the TGI (KM12 colon) of the same molecule?
Answer: > 100 µM

Question: And the TGI (CAKI-1 renal)?
Answer: > 100 µM

Question: And the TGI (SNB-19 CNS)?
Answer: > 100 µM

Question: And the TGI (HCT-116 colon)?
Answer: > 100 µM

Question: What about the TGI (CCRF-CEM leukemia) of the same molecule?
Answer: 44.9 µM

Question: What about the TGI (MOLT-4 leukemia) of the same molecule?
Answer: 54.7 µM

Question: And the TGI (HCC-2998 colon)?
Answer: > 100 µM

Question: What about the TGI (SK-MEL-5 melanoma) of the same molecule?
Answer: > 100 µM

Question: What about the TGI (EKVX NSCLC) of the same molecule?
Answer: > 100 µM

Question: What about the TGI (SNB-75 CNS) of the same molecule?
Answer: > 100 µM

Question: What about the TGI (M19-MEL melanoma) of the same molecule?
Answer: 28.8 µM

Question: What about the TGI (K-562 leukemia) of the same molecule?
Answer: > 100 µM

Question: And the TGI (HOP-18 NSCLC)?
Answer: > 100 µM

Question: What about the TGI (SK-MEL-2 melanoma) of the same molecule?
Answer: > 100 µM

Question: And the TGI (SW-620 colon)?
Answer: > 100 µM

Question: And the TGI (SF-268 CNS)?
Answer: > 100 µM

Question: And the TGI (OVCAR-5 ovarian)?
Answer: > 100 µM

Question: What about the TGI (DMS 114 small cell lung) of the same molecule?
Answer: 72.1 µM

Question: And the TGI (NCI-H460 lung)?
Answer: > 100 µM

Question: And the TGI (SNB-78 CNS)?
Answer: 91.1 µM

Question: What about the TGI (SF-295 CNS) of the same molecule?
Answer: > 100 µM

Question: And the TGI (HCT-15 colon)?
Answer: > 100 µM

Question: What about the TGI (XF 498 CNS) of the same molecule?
Answer: 62.4 µM

Question: What about the TGI (SK-OV-3 ovarian) of the same molecule?
Answer: > 100 µM

Question: What about the TGI (M14 melanoma) of the same molecule?
Answer: > 100 µM

Question: And the TGI (RXF 393 renal)?
Answer: > 100 µM

Question: What about the TGI (786-0 renal) of the same molecule?
Answer: > 100 µM

Question: And the TGI (MALME-3M melanoma)?
Answer: > 100 µM

Question: And the TGI (ACHN renal)?
Answer: > 100 µM

Question: And the TGI (HT29 colon)?
Answer: > 100 µM

Question: What about the TGI (HOP-62 NSCLC) of the same molecule?
Answer: > 100 µM

Question: And the TGI (KM20L2 colon)?
Answer: > 100 µM

Question: What about the TGI (SF-539 CNS) of the same molecule?
Answer: > 100 µM

Question: What about the TGI (UACC-62 melanoma) of the same molecule?
Answer: 41.6 µM

Question: What about the TGI (OVCAR-8 ovarian) of the same molecule?
Answer: > 100 µM

Question: And the TGI (IGROV1 ovarian)?
Answer: > 100 µM

Question: What about the TGI (OVCAR-3 ovarian) of the same molecule?
Answer: > 100 µM

Question: What about the TGI (U251 CNS) of the same molecule?
Answer: > 100 µM

Question: And the TGI (NCI-H23 lung)?
Answer: > 100 µM

Question: What about the TGI (SN12C renal) of the same molecule?
Answer: > 100 µM

Question: And the TGI (NCI-H226 lung)?
Answer: > 100 µM

Question: What about the TGI (HOP-92 NSCLC) of the same molecule?
Answer: > 100 µM

Question: And the TGI (UO-31 renal)?
Answer: > 100 µM

Question: And the TGI (LOX IMVI melanoma)?
Answer: 33.2 µM

Question: And the TGI (SK-MEL-28 melanoma)?
Answer: > 100 µM

Question: And the TGI (TK-10 renal)?
Answer: > 100 µM

Question: What about the TGI (DLD-1 colon) of the same molecule?
Answer: > 100 µM

Question: What about the TGI (UACC-257 melanoma) of the same molecule?
Answer: 51.1 µM

Question: And the TGI (LXFL 529 NSCLC)?
Answer: > 100 µM

Question: And the TGI (DMS 273 small cell lung)?
Answer: > 100 µM
